{
  "source": "patent US12226400B2",
  "about": "“Neuroprotective disruption of Kv2.1/syntaxin interaction by small molecules” (UNIVERSITY OF PITTSBURGH-OF THE COMMONWEALTH SYSTEM OF …, priority 2018, dated 2025)",
  "key": {"NMDA receptors": {"test_system": "NMDA receptors", "assay": "Fura-2 ratiometric Ca2+ imaging during NMDA exposure", "assay_type": "cell-based, rat", "details": "10 μM cpd5, NMDA 30 μM with 10 μM glycine; ±SEM", "procedure": "Intracellular Ca^2+ measurements were performed on the same cortical culture preparations as above, but with 20 DIV cells plated on MatTek glass-bottom 35 mm culture dishes. At this developmental stage, neurons robustly express both GluN2A and GluN2B subunits of the NMDA receptor. Neurons were incubated with the fluorescent Ca^2+ indicator Fura-2 AM ester (5 μM; Invitrogen) with 0.02% Pluronic F-127 (Invitrogen) for 1 h at 37° C. Culture dishes were then mounted on an inverted microscope stage (Olympus) and continuously perfused with a 10 mM HEPES-buffered normal salt solution. Perfusion rate (5 ml/min) was controlled with a gravity flow and a rapid-switching local perfusion system (Warner Instruments). […] A ratio of fluorescence emission (F) at 510 nm in response to excitations at 340 and 380 nm was acquired at 1 Hz (Fambda DG-4 and 10-B SmartShutter, Sutter Instruments) via camera (ORCAER, Hamamatsu) and saved to a computer using HCImage (Hamamatsu). Baseline Ca^2+ signals were recorded for 2 min before the first application of NMDA (30 μM plus 10 μM glycine) with or without 10 μM cpd5 (Cat #MolPort-009-741-732, Molport). […] Peak increases in intracellular calcium concentration were measured by calculating F/Fo (F, peak fluorescence; Fo, average signal across 2 min baseline period). The area under the response for the first 15 min of NMDA application was also calculated."}, "[1]": {"biological_target": "syntaxin 1A / Kv2.1 peptides containing the C1aB region (Homo sapiens, UniProt Q16623)", "sequence (Q16623 whole entry, species assumed, the tested form may be a part)": "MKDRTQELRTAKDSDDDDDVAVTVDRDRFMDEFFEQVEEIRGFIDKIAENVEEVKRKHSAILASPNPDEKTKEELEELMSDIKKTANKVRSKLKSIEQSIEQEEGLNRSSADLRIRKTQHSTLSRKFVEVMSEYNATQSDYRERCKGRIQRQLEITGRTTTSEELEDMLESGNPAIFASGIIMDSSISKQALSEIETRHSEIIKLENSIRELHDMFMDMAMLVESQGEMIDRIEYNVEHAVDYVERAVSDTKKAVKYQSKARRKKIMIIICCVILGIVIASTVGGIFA", "assay": "Peptide spot array far-Western assay of syntaxin binding to Kv2.1 C1a peptides", "set-up": "species or system rat", "excerpt": "Peptide spot array and far-Western assay. Peptide spot arrays (15 mers) spanning the proximal C-terminus residues 451-540 of rat Kv2.1 were constructed using the Spots-synthesis method. Standard 9-fluorenylmethoxy carbonyl (Fmoc) chemistry was used to synthesize the peptides and spot them onto nitrocellulose membranes prederivatized with a polyethylene glycerol spacer (Intavis). Fmoc protected and activated amino acids were spotted in quadruplicates on 20-30 arrays on 75 by 25 mm membranes using an Intavis MultiPep robot. The nitrocellulose membrane containing the immobilized peptides were rehydrated in Tris-buffered 0.1% Tween 20 (TBST) for 10 min, and then blocked for 1 h at room temperature (RT) with gentle shaking in TBST containing 5% (w/v) nonfat dry milk and then incubated with enriched STX1A protein containing the indicated concentrations of cpd5 for 1 h at RT with gentle shaking. Next, the membrane was incubated in primary antibody for syntaxin 1A (Millipore, catalog #AB5820-50UL, RRID:AB_2216165) for 2 h at RT with gentle shaking, followed by washing with TBST. Finally, the membrane was incubated in secondary antibody (goat anti-rabbit DyLight 800, catalog #355571, Thermo Fisher Scientific) for 45 min, washed for 3 times 5 min in TBST, and visualized by infrared fluorescence (Li-Cor). Similar procedures were followed for the alanine scan study with 9-mers."}},
  "note": "pIC50: −log10 of the molar value.",
  "data": [
    {"compound": "COc1ccc(CNC(=O)Nc2cccc(-c3nc4ccccc4s3)c2)cc1OC", "note": "[cpd5, 3-[3-(1,3-benzothiazol-2-yl)phenyl]-1-[(3,4-dimethoxyphenyl)methyl]urea]", "values": [
      {"measurement": "NMDA-induced Ca2+ response, AUC treated", "setting": "NMDA receptors", "value": "104.67±1.98", "unit": "% Control"},
      {"measurement": "NMDA-induced Ca2+ response, F-peak treated", "setting": "NMDA receptors", "value": "101.26±1.47", "unit": "% Control"},
      {"measurement": "reduction of Kv2.1 peptides binding to syntaxin at peak values", "setting": "[1]; Cpd5 100 μM", "value": "up to 60%"},
      {"measurement": "pIC50", "setting": "[1]; percent inhibition compared to 0.1% DMSO, variable slope fit, read-out: IC50 for inhibition of syntaxin binding to peptides 22-28 (full C1aB domain) of the peptide array", "value": 5.26}
    ]}
  ]
}
